melting point	SMILES
102.4 °C	Cc1ccc(-c2ccccc2)cc1Cn1c(C2CC2)nn(C)c1=O [Compound 538, 5-cyclopropyl-2-methyl-4-(2-methyl-5-phenylbenzyl)-2,4-dihydro-3H-1,2,4-triazol-3-one]
115.7 °C	Cc1ccc(-c2ccccc2)cc1Cn1c(Cl)nn(C)c1=O [Compound 7, 5-chloro-2-methyl-4-(2-methyl-5-phenylbenzyl)-2,4-dihydro-3H-1,2,4-triazol-3-one]
95.6 °C	CSc1nn(C)c(=O)n1Cc1cc(-c2ccccc2)ccc1C [Compound 8, 5-methylthio-2-methyl-4-(2-methyl-5-phenylbenzyl)-2,4-dihydro-3H-1,2,4-triazol-3-one]
138.9 °C	Cc1ccc(-c2ccccc2)cc1Cn1c(C)nn(C)c1=O [Compound 10, 2,5-dimethyl-4-(2-methyl-5-phenylbenzyl)-2,4-dihydro-3H-1,2,4-triazol-3-one]

Reference: patent US6489487B1, “Triazolone derivatives, use thereof, and intermediates therefor” (Sumitomo Chemical Company, Limited, priority 1998, dated 2002)
